The results in this text go back to ChEMBL document CHEMBL4732124 (Eur J Med Chem, 2021).

Molecules are shown by their SMILES.

The test system of data set [1] is HepG2. The data set can be described thus: Antiproliferative activity against human HepG2 cells assessed as cell viability at 10 uM after 48 hrs by MTT assay relative to control. Format: functional. Conditions: read-out: Activity. Background: Tetrazolium dyes change colour on reduction, which living cells bring about.
In data set [2] the test system is Hep 3B2. The experiment in a line: Antiproliferative activity against human Hep3B cells assessed as cell viability at 10 uM after 48 hrs by MTT assay relative to control. Type of data set: functional. Conditions: read-out: Activity.
In data set [3] the test system is Huh-7. The experiment in a line: Antiproliferative activity against human Huh-7 cells assessed as cell viability at 10 uM after 48 hrs by MTT assay relative to control. Format: functional. Conditions: read-out: Activity.
In data set [4] the target is T1, Vascular endothelial growth factor receptor 2 (Homo sapiens, UniProt P35968). The experiment in a line: Inhibition of KDR (unknown origin) in presence of [gamma33]-ATP by liquid scintillation counting analysis.
Data set [5] addresses RAF proto-oncogene serine/threonine-protein kinase (Homo sapiens) (UniProt P04049). The experiment in a line: Inhibition of C-Raf (unknown origin) in presence of [gamma33]-ATP at 10 uM by liquid scintillation counting analysis relative to control.
Data set [6] concerns the target T2, Vascular endothelial growth factor receptor 3 (Homo sapiens, UniProt P35916). The data set can be described thus: Inhibition of Flt4 (unknown origin) in presence of [gamma33]-ATP at 10 uM by liquid scintillation counting analysis relative to control.
Data set [7] relates to HepG2. The experiment in a line: Induction of apoptosis in human HepG2 cells assessed as increase in caspase 3/7 activity at 1.95 uM. Format: functional.
The target in data set [8] is T3, Platelet-derived growth factor receptor alpha (Homo sapiens, UniProt P16234). The data set can be described thus: Inhibition of PDGFRalpha (unknown origin) in presence of [gamma33]-ATP at 10 uM by liquid scintillation counting analysis relative to control.
The next data set concerns the target hERG (KCNH2) (Homo sapiens, UniProt Q12809). The experiment in a line: Potency index, ratio of E-4031 IC50 to compound IC50 for inhibition of human ERG. Conditions: read-out: Ratio IC50.
Data set [9] has as its target T3, Platelet-derived growth factor receptor alpha. The experiment in a line: Inhibition of PDGFRalpha (unknown origin) in presence of [gamma33]-ATP by liquid scintillation counting analysis.
For data set [10], the target named is T4, Serine/threonine-protein kinase A-Raf (Homo sapiens) (UniProt P10398).
T4 sequence (whole entry): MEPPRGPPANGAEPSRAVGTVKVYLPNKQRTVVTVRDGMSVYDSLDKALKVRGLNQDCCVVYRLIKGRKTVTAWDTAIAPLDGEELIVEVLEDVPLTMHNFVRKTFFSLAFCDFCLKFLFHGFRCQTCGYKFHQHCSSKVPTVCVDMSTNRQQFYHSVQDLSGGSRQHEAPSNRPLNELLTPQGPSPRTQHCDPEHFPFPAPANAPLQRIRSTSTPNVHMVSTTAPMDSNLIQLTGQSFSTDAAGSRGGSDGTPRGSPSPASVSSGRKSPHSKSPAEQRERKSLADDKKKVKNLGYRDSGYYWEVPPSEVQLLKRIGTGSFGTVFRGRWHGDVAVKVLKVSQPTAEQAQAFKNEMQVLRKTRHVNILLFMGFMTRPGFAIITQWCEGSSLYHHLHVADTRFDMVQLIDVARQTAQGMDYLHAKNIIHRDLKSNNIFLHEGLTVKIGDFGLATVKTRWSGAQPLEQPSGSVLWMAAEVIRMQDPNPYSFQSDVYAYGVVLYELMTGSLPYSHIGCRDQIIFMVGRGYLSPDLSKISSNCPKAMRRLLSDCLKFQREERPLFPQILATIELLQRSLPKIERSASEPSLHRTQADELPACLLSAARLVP
The experiment in a line: Inhibition of A-Raf (unknown origin) in presence of [gamma33]-ATP at 10 uM by liquid scintillation counting analysis relative to control.

The target of data set [11] is T2, Vascular endothelial growth factor receptor 3. The experiment in a line: Inhibition of Flt4 (unknown origin) in presence of [gamma33]-ATP by liquid scintillation counting analysis.
Another data set has as its system WI-38. The data set can be described thus: Cytotoxicity against human WI-38 cells assessed as cell viability after 48 hrs by MTT assay. Format: cell-based. Conditions: WI-38, 48 h.
The target in data set [12] is Platelet-derived growth factor receptor beta (Homo sapiens) (UniProt P09619). The data set can be described thus: Inhibition of PDGFRbeta (unknown origin) in presence of [gamma33]-ATP at 10 uM by liquid scintillation counting analysis relative to control.
In data set [13] the test system is HepG2. The experiment in a line: Antiproliferative activity against human HepG2 cells assessed as reduction in cell viability after 48 hrs by MTT assay. Conditions: HepG2, 48 h. Type of data set: functional, cell-based.
Data set [14] concerns the target T1, Vascular endothelial growth factor receptor 2. The data set can be described thus: Inhibition of VEGFR2 autophosphorylation in VEGF-stimulated human HepG2 cells after 2 hrs Western blot analysis. Conditions: dose 1-3 µM. A general note: A western blot detects proteins with antibodies after separation by electrophoresis.
Data set [15] relates to Hep 3B2. The experiment in a line: Antiproliferative activity against human Hep3B cells assessed as reduction in cell viability after 48 hrs by MTT assay. Type of data set: functional, cell-based.
Data set [16] deals with T5, Mast/stem cell growth factor receptor Kit (Homo sapiens, UniProt P10721). The data set can be described thus: Inhibition of CKIT (unknown origin) in presence of [gamma33]-ATP at 10 uM by liquid scintillation counting analysis relative to control.
Data set [17] relates to Huh-7. The experiment in a line: Antiproliferative activity against human Huh-7 cells assessed as reduction in cell viability after 48 hrs by MTT assay. Format: functional, cell-based. Conditions: Huh-7, 48 h.
Data set [18] relates to HepG2. The experiment in a line: Induction of necrosis in human HepG2 cells assessed as increase in LDH release at 1.95 uM. Type of data set: functional. (LDH leaks from cells whose membrane has failed.)
Data set [19] addresses Dual specificity mitogen-activated protein kinase kinase 1 (Homo sapiens) (UniProt Q02750). The data set can be described thus: Inhibition of MEK-1 (unknown origin) in presence of [gamma33]-ATP at 10 uM by liquid scintillation counting analysis relative to control.
In data set [20] the target is T5, Mast/stem cell growth factor receptor Kit. The data set can be described thus: Inhibition of CKIT (unknown origin) in presence of [gamma33]-ATP by liquid scintillation counting analysis.

T3 sequence (P16234 whole entry): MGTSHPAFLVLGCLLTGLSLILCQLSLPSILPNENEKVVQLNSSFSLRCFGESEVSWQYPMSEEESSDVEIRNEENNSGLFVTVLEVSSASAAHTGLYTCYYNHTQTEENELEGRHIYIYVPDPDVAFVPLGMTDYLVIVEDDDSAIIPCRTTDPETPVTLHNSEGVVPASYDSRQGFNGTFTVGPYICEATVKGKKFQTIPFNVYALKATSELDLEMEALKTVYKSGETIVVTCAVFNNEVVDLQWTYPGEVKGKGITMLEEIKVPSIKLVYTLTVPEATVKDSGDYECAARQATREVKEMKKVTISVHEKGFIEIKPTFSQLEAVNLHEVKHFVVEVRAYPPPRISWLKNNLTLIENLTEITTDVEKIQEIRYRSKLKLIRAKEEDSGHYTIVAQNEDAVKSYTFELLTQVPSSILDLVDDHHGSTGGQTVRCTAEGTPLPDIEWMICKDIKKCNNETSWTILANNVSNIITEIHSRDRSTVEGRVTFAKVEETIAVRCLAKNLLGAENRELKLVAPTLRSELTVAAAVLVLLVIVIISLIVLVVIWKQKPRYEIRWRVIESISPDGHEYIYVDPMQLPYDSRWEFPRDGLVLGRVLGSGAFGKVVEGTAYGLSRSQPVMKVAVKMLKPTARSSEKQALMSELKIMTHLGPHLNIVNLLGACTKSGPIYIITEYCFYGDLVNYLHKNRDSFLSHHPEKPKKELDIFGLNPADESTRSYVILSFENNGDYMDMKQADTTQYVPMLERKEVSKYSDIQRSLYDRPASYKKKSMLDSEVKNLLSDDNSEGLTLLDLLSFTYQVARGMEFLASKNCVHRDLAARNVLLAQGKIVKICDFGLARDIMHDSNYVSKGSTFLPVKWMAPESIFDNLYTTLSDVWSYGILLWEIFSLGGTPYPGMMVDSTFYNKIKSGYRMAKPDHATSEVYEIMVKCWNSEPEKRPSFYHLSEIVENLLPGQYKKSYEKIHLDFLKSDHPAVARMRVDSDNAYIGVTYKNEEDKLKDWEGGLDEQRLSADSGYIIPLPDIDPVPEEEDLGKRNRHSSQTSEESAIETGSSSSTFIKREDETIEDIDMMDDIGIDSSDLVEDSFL
T5 sequence (P10721 whole entry): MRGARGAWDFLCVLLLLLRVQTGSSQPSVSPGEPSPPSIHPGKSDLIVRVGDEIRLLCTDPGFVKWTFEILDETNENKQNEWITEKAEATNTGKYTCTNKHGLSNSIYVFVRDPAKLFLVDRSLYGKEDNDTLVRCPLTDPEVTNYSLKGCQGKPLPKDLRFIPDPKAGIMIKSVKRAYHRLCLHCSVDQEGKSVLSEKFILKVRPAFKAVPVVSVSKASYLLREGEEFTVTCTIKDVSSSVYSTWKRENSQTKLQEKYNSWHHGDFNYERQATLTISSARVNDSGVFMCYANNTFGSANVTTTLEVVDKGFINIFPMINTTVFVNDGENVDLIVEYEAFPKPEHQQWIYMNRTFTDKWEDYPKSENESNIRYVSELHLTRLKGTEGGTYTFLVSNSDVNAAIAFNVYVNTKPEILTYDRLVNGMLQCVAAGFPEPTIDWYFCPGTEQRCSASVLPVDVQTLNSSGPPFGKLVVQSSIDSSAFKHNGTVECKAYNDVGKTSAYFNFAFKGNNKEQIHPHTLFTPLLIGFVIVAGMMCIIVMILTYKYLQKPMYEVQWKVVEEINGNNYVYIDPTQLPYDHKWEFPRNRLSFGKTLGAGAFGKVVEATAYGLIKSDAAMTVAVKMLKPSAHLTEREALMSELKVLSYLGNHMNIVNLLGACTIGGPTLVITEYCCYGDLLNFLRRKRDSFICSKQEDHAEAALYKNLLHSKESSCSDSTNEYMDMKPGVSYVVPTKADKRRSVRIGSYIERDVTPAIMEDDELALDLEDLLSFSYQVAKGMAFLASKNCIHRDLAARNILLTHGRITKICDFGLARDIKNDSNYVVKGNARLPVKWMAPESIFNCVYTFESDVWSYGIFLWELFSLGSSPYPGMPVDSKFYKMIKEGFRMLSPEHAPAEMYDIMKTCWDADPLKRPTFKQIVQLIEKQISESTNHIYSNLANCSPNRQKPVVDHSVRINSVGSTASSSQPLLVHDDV
T2 sequence (P35916 whole entry): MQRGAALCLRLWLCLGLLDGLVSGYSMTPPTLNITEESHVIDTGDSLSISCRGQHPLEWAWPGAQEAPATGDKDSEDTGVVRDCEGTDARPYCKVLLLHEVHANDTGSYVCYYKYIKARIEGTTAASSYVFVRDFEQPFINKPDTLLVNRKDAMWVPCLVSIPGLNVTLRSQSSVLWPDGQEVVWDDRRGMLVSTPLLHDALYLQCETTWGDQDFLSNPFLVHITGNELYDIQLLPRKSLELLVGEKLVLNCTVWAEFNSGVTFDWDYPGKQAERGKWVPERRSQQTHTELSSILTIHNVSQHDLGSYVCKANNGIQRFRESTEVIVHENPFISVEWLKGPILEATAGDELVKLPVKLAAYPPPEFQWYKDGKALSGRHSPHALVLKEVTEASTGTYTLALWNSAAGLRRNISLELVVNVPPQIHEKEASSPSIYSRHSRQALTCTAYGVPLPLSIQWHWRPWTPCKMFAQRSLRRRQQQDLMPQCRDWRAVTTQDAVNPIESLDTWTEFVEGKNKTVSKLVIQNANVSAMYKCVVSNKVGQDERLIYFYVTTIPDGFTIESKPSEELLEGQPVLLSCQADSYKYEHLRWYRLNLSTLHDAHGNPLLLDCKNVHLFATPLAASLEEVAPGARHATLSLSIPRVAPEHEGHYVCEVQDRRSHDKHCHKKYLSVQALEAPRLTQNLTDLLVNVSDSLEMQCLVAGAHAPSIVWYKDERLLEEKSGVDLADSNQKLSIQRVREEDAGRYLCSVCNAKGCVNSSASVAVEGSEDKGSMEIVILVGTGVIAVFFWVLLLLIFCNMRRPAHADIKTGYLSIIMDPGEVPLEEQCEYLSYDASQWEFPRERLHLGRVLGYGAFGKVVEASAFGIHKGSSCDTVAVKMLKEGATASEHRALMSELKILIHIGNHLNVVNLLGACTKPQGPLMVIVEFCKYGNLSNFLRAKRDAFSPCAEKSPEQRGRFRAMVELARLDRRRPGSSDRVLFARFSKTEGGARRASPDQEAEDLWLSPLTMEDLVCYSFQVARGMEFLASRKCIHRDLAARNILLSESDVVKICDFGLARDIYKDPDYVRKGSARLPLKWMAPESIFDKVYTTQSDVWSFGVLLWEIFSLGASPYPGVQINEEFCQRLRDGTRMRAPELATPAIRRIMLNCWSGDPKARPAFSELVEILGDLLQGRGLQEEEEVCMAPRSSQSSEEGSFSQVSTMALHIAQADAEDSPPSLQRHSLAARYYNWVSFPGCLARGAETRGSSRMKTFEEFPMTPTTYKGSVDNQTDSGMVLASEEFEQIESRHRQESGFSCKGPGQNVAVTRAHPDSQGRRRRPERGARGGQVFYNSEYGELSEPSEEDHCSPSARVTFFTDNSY
T1 sequence (P35968 whole entry): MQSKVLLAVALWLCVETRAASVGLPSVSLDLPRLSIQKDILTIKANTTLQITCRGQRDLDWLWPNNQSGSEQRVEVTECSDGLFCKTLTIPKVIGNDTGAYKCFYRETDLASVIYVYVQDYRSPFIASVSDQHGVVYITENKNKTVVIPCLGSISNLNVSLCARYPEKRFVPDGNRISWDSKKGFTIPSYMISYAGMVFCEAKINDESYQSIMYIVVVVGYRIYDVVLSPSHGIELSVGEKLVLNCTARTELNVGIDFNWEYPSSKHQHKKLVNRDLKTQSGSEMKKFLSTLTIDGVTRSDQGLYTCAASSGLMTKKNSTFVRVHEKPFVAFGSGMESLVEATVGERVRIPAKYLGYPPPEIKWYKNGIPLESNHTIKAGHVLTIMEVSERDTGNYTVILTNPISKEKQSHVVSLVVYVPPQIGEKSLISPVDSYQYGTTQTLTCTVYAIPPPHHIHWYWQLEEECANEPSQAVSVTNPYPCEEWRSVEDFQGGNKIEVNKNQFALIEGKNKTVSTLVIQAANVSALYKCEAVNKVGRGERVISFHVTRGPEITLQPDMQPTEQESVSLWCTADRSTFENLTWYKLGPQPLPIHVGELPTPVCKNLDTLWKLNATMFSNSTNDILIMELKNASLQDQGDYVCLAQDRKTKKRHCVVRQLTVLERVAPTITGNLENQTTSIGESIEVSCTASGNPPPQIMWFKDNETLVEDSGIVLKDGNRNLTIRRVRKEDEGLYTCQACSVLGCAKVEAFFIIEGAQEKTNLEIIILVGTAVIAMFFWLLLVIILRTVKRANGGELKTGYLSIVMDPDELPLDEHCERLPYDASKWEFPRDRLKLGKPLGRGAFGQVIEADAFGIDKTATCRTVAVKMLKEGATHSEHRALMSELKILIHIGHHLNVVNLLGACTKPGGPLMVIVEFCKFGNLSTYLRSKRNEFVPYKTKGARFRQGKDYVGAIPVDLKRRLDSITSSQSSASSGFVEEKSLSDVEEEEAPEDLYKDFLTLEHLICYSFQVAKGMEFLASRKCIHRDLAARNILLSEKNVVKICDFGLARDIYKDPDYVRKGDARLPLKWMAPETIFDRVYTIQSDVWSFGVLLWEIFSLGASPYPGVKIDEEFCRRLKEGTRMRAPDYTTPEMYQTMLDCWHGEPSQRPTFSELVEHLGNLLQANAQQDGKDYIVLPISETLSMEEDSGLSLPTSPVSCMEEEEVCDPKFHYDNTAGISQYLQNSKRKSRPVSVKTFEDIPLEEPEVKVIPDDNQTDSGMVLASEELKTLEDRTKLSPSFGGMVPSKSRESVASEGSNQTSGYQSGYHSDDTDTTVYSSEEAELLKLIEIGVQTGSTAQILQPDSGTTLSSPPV

Consider `CNC(=O)c1cc(-n2ccc3cc(NC(=O)Nc4ccc(N5CCN(C)CC5)c(C(F)(F)F)c4)ccc32)ccn1`, for which the viability at 10 µM with HepG2 [1] is 27%; in the data set with Hep 3B2 [2], 92%; in the data set on Huh-7 [3], 20%. In addition, the 50% inhibitory concentration (IC50) – broadly, the concentration needed to halve the response being measured – in data set [4] is 0.173 µM; in [9], more than 5 µM; in [11], 0.0957 µM; in the data set on WI-38 it was more than 30 µM; in the data set on HepG2 [13] it was 1.95 µM; in the data set with Hep 3B2 [15], 8.01 µM. Also, the half-inhibitory concentration (IC50) with Huh-7 [17] stood at 4.31 µM; in data set [20] it was 5 µM. Further, the inhibition (usually the drop in the measured response relative to a control, in per cent) was -0.5% in [5]; 93.5% in data set [6]; 71.5% in [8]; -4% in [10]; 47.5% in data set [12]; “Dose-dependent effect” in data set [14]. Besides, the results for the inhibition in data set [16] and in data set [19] were 70.5% and 11.5%, respectively. Also, the Activity in the data set on HepG2 [7] came out at 67.45%; in the data set with HepG2 [18], 21.5%. Besides, on hERG (KCNH2), the selectivity ratio came out at 3720.

`CNC(=O)c1cc(Oc2ccc(NC(=O)Nc3ccc(Cl)c(C(F)(F)F)c3)cc2)ccn1` [SORAFENIB]: the figures for the viability at 10 µM in the data set with HepG2 [1], with Hep 3B2 [2] and in the data set on Huh-7 [3] were 35%, 33% and 21%, respectively. For the same molecule, the inhibition in data set [8] was found to be 99.4%; in data set [10] it was 99%; in data set [12], 99.1%; in data set [16] it was 65.8%; in data set [19], 37.7%. Further, the half-maximal inhibitory concentration (IC50) in the data set on WI-38 is more than 30 µM; in the data set with HepG2 [13] it was 7.22 µM; in the data set with Hep 3B2 [15], 8.62 µM; in the data set with Huh-7 [17], 7.55 µM.
